US10188756B2, “Imaging histone deacetylases with a radiotracer using positron emission tomography” (THE GENERAL HOSPITAL CORPORATION, priority 2013, dated 2019)
“Also recorded” adds a separate entry of the source.

What was measured:
[1] = molecular target: HDAC2 (Homo sapiens (Human), UniProt Q92769); test: HDAC inhibition assay; type: biochemical
Source text: (§1) All histone deacetylases were purchased from BPS Bioscience. […] All the other reagents were purchased from Sigma-Aldrich.

[2] = system: histone deacetylases; test: Rodent PET/CT imaging with [11C]CN133; type: in vivo, rats (Sprague Dawley); conditions: for [11C]CN133 uptake in peripheral organs/regions of rats after treatment: peripheral organs (heart wall, kidney cortex, spleen); for blocking of [11C]CN133 uptake in rat brain after pretreatment: whole brain, 5-minute pretreatment
Description: Male Sprague-Dawley rats were utilized in pairs, anesthetized with inhalational isoflurane (Forane) at 3% in a carrier of 2 L/min medical oxygen and maintained at 2% isoflurane for the duration of the scan. The rats were arranged head-to-head in a Triumph Trimodality PET/CT/SPECT scanner (Gamma Medica, Northridge, Calif., USA). Rats were injected standard references or vehicle via a lateral tail vein catheterization at the start of PET acquisition. Dynamic PET acquisition lasted for 60 minutes and was followed by computed tomography (CT) for anatomic coregistration. PET data were reconstructed using a 3D-MLEM method resulting in a full width at half-maximum resolution of 1 mm. Reconstructed images were exported from the scanner in DICOM format along with an anatomic CT for rodent studies. These files were imported to PMOD (PMOD Technologies, Ltd.) and manually coregistered using six degrees of freedom.
(§2) Volumes of interest (VOIs) were drawn manually as spheres in brain regions guided by high resolution CT structural images and summed PET data, with a radius no less than 1 mm to minimize partial volume effects. Time-activity curves (TACs) were exported in terms of decay corrected activity per unit volume at specified time points with gradually increasing intervals. The TACs were expressed as percent injected dose per unit volume for analysis.

[3] = molecular target: HDAC1 (Homo sapiens (Human), UniProt Q13547); test: HDAC inhibition assay; conditions: read-out: IC50 HDAC1
Sequence of HDAC1 (Q13547 whole entry): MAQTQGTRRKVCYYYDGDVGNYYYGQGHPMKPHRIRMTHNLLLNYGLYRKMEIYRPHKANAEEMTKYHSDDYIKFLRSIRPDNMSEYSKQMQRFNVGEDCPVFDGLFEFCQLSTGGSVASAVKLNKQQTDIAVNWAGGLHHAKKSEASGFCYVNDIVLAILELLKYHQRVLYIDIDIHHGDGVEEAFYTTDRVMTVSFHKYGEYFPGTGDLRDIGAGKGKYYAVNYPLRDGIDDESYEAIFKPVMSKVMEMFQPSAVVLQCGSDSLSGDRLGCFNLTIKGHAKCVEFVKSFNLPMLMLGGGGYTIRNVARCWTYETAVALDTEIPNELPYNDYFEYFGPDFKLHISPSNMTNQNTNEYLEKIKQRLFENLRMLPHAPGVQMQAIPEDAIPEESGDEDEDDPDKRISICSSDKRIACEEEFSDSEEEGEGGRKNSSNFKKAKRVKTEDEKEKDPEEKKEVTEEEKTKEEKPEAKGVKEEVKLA
Description: (§3) All histone deacetylases were purchased from BPS Bioscience. […] All the other reagents were purchased from Sigma-Aldrich. Caliper EZ reader II system was used to collect all data. […] Purified HDACs were incubated with 2 μM carboxyfluorescein (FAM)-labeled acetylated or trifluoroacetylated peptide substrate (Broad Substrate A and B respectively) and test compound for 60 minutes at room temperature, in HDAC assay buffer that contained 50 mM HEPES (pH 7.4), 100 mM KCl, 0.01% BSA and 0.001% Tween-20. […] Substrate and product were separated electrophoretically and fluorescence intensity in the substrate and product peaks was determined and analyzed by Labchip EZ Reader. The reactions were performed in duplicate for each sample. IC50 values were automatically calculated by Origin 8 using 4 Parameter Logistic Model. The percent inhibition was plotted against the compound concentration, and the IC50 value was determined from the logistic dose-response curve fitting by Origin 8.0 software.

[4] = molecular target: HDAC3 (Homo sapiens (Human), UniProt O15379); test: HDAC inhibition assay; conditions: read-out: IC50 HDAC3
Sequence of HDAC3 (O15379 whole entry): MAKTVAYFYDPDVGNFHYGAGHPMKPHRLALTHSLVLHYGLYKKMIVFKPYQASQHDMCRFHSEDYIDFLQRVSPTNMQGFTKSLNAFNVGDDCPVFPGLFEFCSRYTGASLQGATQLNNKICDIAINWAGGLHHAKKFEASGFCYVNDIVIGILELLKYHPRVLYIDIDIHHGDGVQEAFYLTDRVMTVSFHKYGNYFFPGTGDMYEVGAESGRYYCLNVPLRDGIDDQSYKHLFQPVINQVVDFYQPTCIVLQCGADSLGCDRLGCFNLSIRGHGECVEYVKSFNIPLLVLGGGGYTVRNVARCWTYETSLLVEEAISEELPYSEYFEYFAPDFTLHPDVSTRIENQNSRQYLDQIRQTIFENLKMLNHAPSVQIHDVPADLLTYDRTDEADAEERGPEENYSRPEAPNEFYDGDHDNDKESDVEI
Sequence of HDAC3 (Q9Y618 395-489 partner): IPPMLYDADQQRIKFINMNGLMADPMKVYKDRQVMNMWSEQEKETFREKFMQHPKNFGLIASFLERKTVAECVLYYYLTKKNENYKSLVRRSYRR
Description: as §3

[5] = molecular target: HDAC6 (Homo sapiens (Human), UniProt Q9UBN7); test: HDAC inhibition assay; type: biochemical
Sequence of HDAC6 (Q9UBN7 whole entry): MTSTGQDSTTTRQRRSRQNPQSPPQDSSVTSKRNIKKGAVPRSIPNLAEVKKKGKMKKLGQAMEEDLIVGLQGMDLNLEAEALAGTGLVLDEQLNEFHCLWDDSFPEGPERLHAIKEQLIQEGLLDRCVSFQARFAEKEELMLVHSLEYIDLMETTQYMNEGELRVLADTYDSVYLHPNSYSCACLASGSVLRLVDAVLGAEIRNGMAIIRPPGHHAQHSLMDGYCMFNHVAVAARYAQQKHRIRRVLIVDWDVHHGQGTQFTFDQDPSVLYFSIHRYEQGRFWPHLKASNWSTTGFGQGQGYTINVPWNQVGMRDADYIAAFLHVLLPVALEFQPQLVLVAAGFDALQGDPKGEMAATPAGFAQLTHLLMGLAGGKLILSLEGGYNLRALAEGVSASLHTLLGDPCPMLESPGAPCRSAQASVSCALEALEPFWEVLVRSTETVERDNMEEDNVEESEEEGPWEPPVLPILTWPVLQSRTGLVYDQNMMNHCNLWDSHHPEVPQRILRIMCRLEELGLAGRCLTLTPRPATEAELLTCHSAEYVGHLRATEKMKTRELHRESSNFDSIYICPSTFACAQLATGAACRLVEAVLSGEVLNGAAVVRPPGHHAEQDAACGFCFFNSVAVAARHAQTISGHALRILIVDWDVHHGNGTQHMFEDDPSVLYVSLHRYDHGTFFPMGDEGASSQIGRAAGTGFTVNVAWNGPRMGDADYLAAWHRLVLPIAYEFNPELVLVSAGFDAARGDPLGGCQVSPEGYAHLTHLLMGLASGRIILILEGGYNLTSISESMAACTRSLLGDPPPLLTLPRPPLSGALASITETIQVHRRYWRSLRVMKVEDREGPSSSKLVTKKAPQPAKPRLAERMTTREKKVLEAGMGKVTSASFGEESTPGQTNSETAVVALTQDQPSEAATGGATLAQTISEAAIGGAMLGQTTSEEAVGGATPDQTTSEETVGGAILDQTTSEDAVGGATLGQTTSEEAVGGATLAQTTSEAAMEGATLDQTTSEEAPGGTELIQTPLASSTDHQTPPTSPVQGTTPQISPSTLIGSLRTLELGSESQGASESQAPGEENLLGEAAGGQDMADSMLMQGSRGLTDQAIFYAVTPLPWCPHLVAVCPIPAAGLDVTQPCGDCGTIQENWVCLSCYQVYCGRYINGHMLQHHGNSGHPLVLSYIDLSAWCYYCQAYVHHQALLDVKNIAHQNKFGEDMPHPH
Source text: as §1

[6] = molecular target: HDAC8 (Homo sapiens (Human), UniProt Q9BY41); test: HDAC inhibition assay; type: biochemical
Sequence of HDAC8 (Q9BY41 whole entry): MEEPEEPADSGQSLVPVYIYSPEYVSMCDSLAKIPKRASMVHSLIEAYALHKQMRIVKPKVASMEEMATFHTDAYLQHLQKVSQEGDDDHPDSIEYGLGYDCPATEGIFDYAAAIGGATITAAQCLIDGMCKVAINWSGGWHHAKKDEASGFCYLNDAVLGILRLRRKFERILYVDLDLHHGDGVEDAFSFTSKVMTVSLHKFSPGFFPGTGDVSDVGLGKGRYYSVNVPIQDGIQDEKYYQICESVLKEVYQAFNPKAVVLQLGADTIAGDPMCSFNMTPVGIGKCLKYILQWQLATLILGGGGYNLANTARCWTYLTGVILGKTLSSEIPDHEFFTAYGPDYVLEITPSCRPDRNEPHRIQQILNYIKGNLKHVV
Source text: as §1

[7] = molecular target: HDAC4 (Homo sapiens (Human), UniProt P56524); test: HDAC inhibition assay; conditions: read-out: IC50 HDAC4
Description: as §3

[8] = molecular target: HDAC5 (Homo sapiens (Human), UniProt Q9UQL6); test: HDAC inhibition assay; conditions: read-out: IC50 HDAC5
Sequence of HDAC5 (Q9UQL6 whole entry): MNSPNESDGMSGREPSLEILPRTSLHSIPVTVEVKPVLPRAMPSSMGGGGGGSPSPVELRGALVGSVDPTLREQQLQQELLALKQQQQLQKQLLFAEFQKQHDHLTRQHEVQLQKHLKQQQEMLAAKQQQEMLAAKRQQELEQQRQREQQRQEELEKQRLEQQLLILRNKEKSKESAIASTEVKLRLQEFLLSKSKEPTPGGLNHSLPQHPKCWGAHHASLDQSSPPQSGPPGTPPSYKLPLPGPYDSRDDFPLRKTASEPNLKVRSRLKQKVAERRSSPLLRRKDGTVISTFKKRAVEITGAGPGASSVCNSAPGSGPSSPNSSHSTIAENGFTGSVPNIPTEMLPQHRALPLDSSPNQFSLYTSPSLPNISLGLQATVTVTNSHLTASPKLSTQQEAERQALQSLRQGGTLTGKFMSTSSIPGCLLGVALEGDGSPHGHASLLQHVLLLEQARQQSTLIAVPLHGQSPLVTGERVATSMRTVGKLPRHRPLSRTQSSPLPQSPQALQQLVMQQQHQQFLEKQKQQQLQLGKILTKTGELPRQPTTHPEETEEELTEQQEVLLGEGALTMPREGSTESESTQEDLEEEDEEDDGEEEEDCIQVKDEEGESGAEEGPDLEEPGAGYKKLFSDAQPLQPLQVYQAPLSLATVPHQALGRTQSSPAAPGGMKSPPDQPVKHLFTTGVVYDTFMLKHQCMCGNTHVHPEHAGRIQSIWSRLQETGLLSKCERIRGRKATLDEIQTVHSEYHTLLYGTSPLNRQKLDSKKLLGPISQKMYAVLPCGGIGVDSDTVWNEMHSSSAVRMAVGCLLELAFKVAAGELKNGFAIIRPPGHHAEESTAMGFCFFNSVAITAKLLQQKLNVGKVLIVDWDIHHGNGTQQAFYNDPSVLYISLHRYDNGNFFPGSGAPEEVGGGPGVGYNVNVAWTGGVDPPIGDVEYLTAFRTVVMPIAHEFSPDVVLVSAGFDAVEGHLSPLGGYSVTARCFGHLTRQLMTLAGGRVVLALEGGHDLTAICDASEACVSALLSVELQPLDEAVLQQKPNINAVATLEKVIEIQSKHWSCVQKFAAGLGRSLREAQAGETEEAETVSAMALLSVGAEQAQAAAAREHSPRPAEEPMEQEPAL
Description: as §3

[9] = molecular target: HDAC7 (Homo sapiens (Human), UniProt Q8WUI4); test: HDAC inhibition assay; conditions: read-out: IC50 HDAC7
Description: as §3

[10] = molecular target: HDAC9 (Homo sapiens (Human), UniProt Q9UKV0); test: HDAC inhibition assay; conditions: read-out: IC50 HDAC9
Sequence of HDAC9 (Q9UKV0 whole entry): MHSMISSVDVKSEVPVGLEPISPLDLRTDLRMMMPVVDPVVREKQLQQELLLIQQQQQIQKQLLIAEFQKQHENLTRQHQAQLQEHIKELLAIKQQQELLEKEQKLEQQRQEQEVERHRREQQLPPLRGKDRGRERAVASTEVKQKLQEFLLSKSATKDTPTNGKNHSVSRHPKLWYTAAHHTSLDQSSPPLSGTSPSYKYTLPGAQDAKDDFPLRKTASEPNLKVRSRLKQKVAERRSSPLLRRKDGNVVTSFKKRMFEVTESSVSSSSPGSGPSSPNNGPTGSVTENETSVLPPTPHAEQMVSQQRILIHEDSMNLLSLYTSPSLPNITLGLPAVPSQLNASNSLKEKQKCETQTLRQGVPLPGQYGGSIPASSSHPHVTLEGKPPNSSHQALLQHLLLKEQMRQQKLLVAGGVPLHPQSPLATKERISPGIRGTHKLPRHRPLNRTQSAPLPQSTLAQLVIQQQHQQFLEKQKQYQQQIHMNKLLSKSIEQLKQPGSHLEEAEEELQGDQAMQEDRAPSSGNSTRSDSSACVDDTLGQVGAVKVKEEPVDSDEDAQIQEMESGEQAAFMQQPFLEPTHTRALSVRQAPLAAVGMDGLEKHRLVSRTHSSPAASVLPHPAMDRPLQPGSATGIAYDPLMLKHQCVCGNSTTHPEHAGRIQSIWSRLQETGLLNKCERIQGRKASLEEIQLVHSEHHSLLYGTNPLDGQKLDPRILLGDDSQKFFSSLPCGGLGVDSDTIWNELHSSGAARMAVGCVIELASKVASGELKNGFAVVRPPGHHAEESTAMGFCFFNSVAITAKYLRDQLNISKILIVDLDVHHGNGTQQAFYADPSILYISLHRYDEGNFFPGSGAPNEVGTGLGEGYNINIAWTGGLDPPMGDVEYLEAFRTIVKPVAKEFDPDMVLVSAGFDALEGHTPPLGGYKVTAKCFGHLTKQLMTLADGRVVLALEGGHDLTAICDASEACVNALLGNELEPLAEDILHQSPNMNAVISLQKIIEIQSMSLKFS
Description: as §3

[11] = system: histone deacetylases; test: Baboon PET/MR imaging with [11C]CN133; type: in vivo, baboon (Papio anubis); conditions: for VT (Ichese MAI), Baseline / VT (Logan Plot), Baseline: [11C]CN133 distribution volume, t*=35 min to 80 min
Description: A female Papio Anubis baboon, deprived of food for 12 hours prior to the study, was administered intramuscular ketamine (10 mg/kg) and intubated. For maintenance of anesthesia throughout the study, the baboon was provided 1%-4% isoflurane (Forane) in a mixture of medical oxygen and nitrogen. The baboon was catheterized antecubitally for radiotracer injection and a radial arterial line was placed for metabolite analysis. MR-PET images were acquired in a BiographmMR scanner (Siemens, Munich, Germany), and PET compatible 8-channel coil arrays for non-human primate brain imaging with a PET resolution of 5 mm and field of view of 59.4 cm and 25.8 cm (transaxial and axial, respectively). Dynamic PET image acquisition was initiated followed by administration of the radiotracer in a homogenous solution of 10% ethanol and 90% isotonic saline. An […] sequence began after 30 minutes of the baseline scan for anatomic coregistration. […] Both scans were carried out in the same animal on the same day, separated by 2.5 hours. In both scans, 4-5 mCi of [^11C]CN133 was administered to the baboon. Dynamic data from the PET scans were recorded in list mode and corrected for attenuation. Baboon data were reconstructed using a 3D-OSEM method resulting in a full width at half-maximum resolution of 4 mm.
as §2, with “MR” for “CT”, “4 mm. A common VOI mask was applied” for “1 mm”, “both baboon scans.” for “minimize partial volume effects.”
Arterial samples collected during imaging from the baboon were centrifuged to obtain plasma, which was then removed and placed in an automated gamma counter that was calibrated to the PET scanner. Metabolite analysis was conducted on a custom automated robot fitted with Phenomenex SPE Strata-X 500 mg solid phase extraction cartridges that were primed with ethanol (2 mL) and deionized water (20 mL). Protein precipitation was achieved by addition of plasma (300 μL) to acetonitrile (300 μL), which was centrifuged for 1 minute to obtain protein-free plasma (PFP). 300 μL of PFP/acetonitrile solution was diluted into deionized water (3 mL), loaded onto the C18 cartridge, and removed of polar metabolites with 100% water. Next, a series of extractions were performed using water and acetonitrile in quantities: 95:5, 90:10, 85:15, 80:20, 70:30, 60:40, 30:70 and 100% acetonitrile at a volume of 4 mL. A control experiment was performed before metabolite analysis to determine the retention of the parent compound by injection of a small amount of [^11C]CN133 onto a test series of extraction cartridges. Each sample was counted in a WIZARD2 Automatic Gamma Counter to determine the presence of radiolabeled metabolites.
CN147 blocks ˜40% of [^11C]CN133 binding in NHP whole brain and in cerebellum. Plasma-normalized data were evaluated by volume of interest analysis (VOI) at the whole brain level and at level of the cerebellum. VOI data were then applied to distribution volume (VT) data analysis by two graphical methods using PMOD software, tabulated in Tables A and B below. Logan Plot and Ichese MAI methods were clarified from previous NHP imaging analyses to provide an accurate VT estimate (+/− standard error) from data beginning 35 min after injection of radiotracer (t*=35 min) until the end of the scan (t=80min).

[12] = Log D determination; type: physicochemical; conditions: octanol / phosphate buffer pH 7.4; read-out: partition coefficient (Log D)
Description: An aliquot (˜50 μL) of the formulated radiotracer was added to a test tube containing 2.5 mL of octanol and 2.5 mL of phosphate buffer solution (pH 7.4). The test tube was mixed by vortex for 2 minutes and then centrifuged for 2 minutes to fully separate the aqueous and organic phase. A sample taken from the octanol layer (0.1 mL) and the aqueous layer (1.0 mL) was saved for radioactivity measurement. An additional aliquot of the octanol layer (2.0 mL) was carefully transferred to a new test tube containing 0.5 mL of octanol and 2.5 mL of phosphate buffer solution (pH 7.4). The previous procedure (vortex mixing, centrifugation, sampling, and transfer to the next test tube) was repeated until six sets of aliquot samples had been prepared. The radioactivity of each sample was measured in a well counter (Perkin-Elmer, Waltham, Mass.). The log D of each set of samples was derived by the following equation: log D=log (decay-corrected radioactivity in octanol sample×10/decay-corrected radioactivity in phosphate buffer sample).

[13] = Plasma protein binding assay, baboon plasma; type: in vitro ADME; conditions: method derives % unbound, read-out: plasma protein binding (PPB) (converted)
Description: An aliquot of radiotracer in saline (10 μL) was added to a sample of baboon plasma (0.8 mL, pooled from two separate animals). The mixture was gently mixed by repeated inversion and incubated for 10 minutes at room temperature. Following incubation a small sample (20 μL) was removed to determine the total radioactivity in the plasma sample (AT; AT=Abound+Aunbound). An additional 0.2 mL of the plasma sample was placed in the upper compartment of a Centrifree tube (Amicon, Inc., Beverly, Mass., USA) and then centrifuged for 10 minutes. The upper part of the Centrifree tube was discarded, and an aliquot (20 μL) from the bottom part of the tube was removed to determine the amount of radioactivity that passed through the membrane (Aunbound). Plasma protein binding was derived by the following equation: % unbound=Aunbound×100/AT.

[14] = Plasma protein binding assay, human plasma; type: in vitro ADME; conditions: method derives % unbound, read-out: plasma protein binding (PPB) (converted)
[15] = molecular target: HDAC1 through HDAC9; test: HDAC inhibition assay, isoform panel; type: biochemical; conditions: HDAC1, HDAC2, HDAC3 and HDAC6
Source text: as §1

Row | IC50 [1] [nM] | IC50 [3] [nM] | IC50 [4] [nM] | IC50 [5] [nM] | IC50 [6] [nM] | IC50 [7] [nM] | IC50 [8] [nM] | IC50 [9] [nM] | IC50 [10] [nM] | SMILES | blocking of [11C]CN133 uptake in rat brain after pretreatment [2] | other results
1 | 53.7 | 56.1 | 7.1 | – | – | – | – | – | – | O=C(NO)c1ccc(C2=Nc3ccccc3Oc3ccccc32)cc1 [CN54] | blocked; also recorded: activity blocking | [11C]CN133 uptake in peripheral organs/regions of rats after treatment [2]: decreased uptake
2 | 833 | 301 | 238 | 23.2 | 2570 | > 70000 | > 10000 | > 70000 | > 70000 | COc1ccc(/C=C/C(=O)NO)cc1 [CN87] | – | –
3 | 52.9 | 17.8 | 13.7 | 4.1 | 925 | 3830 | 7950 | 2020 | > 10000 | CN(c1ccccc1)S(=O)(=O)c1cccc(/C=C/C(=O)NO)c1 [CN88] | – | –
4 | 18 | 4.7 | 1.9 | 8.4 | 2370 | > 10000 | > 10000 | > 40000 | > 50000 | CCCCc1nc2cc(/C=C/C(=O)NO)ccc2n1CCN(C)C [CN101] | – | –
5 | 2 | 0.8 | 1.3 | 1.2 | 2840 | 9450 | 3850 | 9650 | > 20000 | COc1ccc2c(c1)C(=O)N(CCCCCC(=O)NO)c1ccccc1S2(=O)=O [CN113] | – | –
6 | 6.4 | 0.78 | 0.5 | 9.5 | 4900 | > 70000 | 4310 | > 50000 | > 50000 | O=C(/C=C/c1ccc(CNCC23CC4CC(CC(C4)C2)C3)c(F)c1)NO [CN148] | – | –
7 | – | – | – | – | – | – | – | – | – | O=C(CCCCCCC(=O)Nc1ccccc1)NO [SAHA, suberanilohydroxamic acid, reference compound] | no significant change; also recorded: did not block the brain uptake | [11C]CN133 uptake in peripheral organs/regions of rats after treatment [2]: decreased uptake; blocking of [11C]CN133 uptake in baboon peripheral organs (time-activity curves) ([11]; heart, spleen, kidney, pancreas, CN133 0.5 mg/kg 10-minute pre-treatment, SAHA infusion 5 mg/kg): significant blocking
8 | – | – | – | – | – | – | – | – | – | [11CH3]N(Cc1ccc(/C=C/C(=O)NO)cc1)CC12CC3CCC(CC(C3)C1)C2 [[11C]CN133] | dose-dependent blocking | logD [12]: 2.03; fraction unbound at 10 min [13]: 0.986; fraction unbound at 10 min [14]: 0.945; BBB penetration ([2]; rats, intravenous, 60 minutes scan): high BBB penetration; VT (Ichese MAI), Baseline ([11]; Cerebellum VOI): 19.45 ± 7.5; VT (Logan Plot), Baseline ([11]; Cerebellum VOI): 19.28 ± 3.18; VT (Ichese MAI), Baseline ([11]; Whole Brain VOI): 14.65 ± 8.48; VT (Logan Plot), Baseline ([11]; Whole Brain VOI): 14.46 ± 3.83; time of peak radioactivity in the brain after injection ([11]; baboon): about 1 minute; tracer uptake in peripheral organs ([11]; baboon heart, kidney, pancreas and spleen): good uptake; changes in vital signs ([11]; baboon, tracer dose or blocking dose): did not notice any significant changes; IC50 / binding towards HDAC isoforms (in words) [15]: sub-nanomolar

Row | SMILES | IC50 [1] [nM] | IC50 [3] [nM] | IC50 [4] [nM] | IC50 [5] [nM] | IC50 [6] [nM] | IC50 [7] [nM] | IC50 [8] [nM] | IC50 [9] [nM] | IC50 [10] [nM] | blocking of [11C]CN133 uptake in rat brain after pretreatment [2] | other results
9 | Cn1cc(CCNCc2ccc(/C=C/C(=O)NO)cc2)c2ccccc21 [CN107] | 1.2 | 0.2 | 0.4 | 1.6 | 1040 | 655 | 99 | 2040 | 4850 | – | –
